Reference: the METLIN SMRT retention time set (Domingo-Almenara et al. 2019)

Test: gradient 5% acetonitrile 3 min, to 50% in 2 min, to 85% in 15 min, held 3 min, 100 µL/min
Details: column: Zorbax Extend-C18 2.1 x 50 mm; eluents: water / acetonitrile, 0.1% formic acid
Procedure, shortened: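 Retention time was recorded from adduct peaks, which were picked computationally and each inspected manually. Pure standards ran in mixtures of ~100 molecules on HPLC coupled to a quadrupole time-of-flight mass spectrometer, in positive and negative ionization mode, through a Zorbax Extend-C18 column (2.1 × 50 mm, 1.8 μm) at 100 μL/min. Eluents were water and acetonitrile, each with 0.1% formic acid.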

RP-LC retention time | Compound
643 s | CCOC(=O)c1noc2ncnc(N3CCN(Cc4ccccc4)CC3)c12
857 s | CSc1ccc(CNC(=O)COc2cc(C)nc(N3CCN(c4ccccc4)CC3)n2)cc1
673 s | O=C(Cc1nc(-c2ccccn2)n[nH]1)Nc1cccc(Cl)c1
1110 s | Cc1oc(C2CCC2)nc1C(=O)NCc1cccc(C(F)(F)F)c1
644 s | CS(=O)(=O)N1CCOc2ccc(CCC(=O)NC3CCS(=O)(=O)C3)cc2C1 (stereo not given)
936 s | CCC(=O)Nc1ccc(C2(C(=O)NCCC(C)C)CCCCC2)cc1
896 s | CCCn1cc(C2=CCN(S(=O)(=O)c3c(C)nn(C)c3C)CC2)c2cccnc21
780 s | O=C(Cc1nnc(-c2cnccn2)o1)Nc1cccc(C(F)(F)F)c1
816 s | COc1ccc(N2Cc3cccc(C(=O)O)c3C2=O)cc1
798 s | Cc1cc(NC(=O)N(C)CC2CCOC2)ccc1Br (stereo not given)
642 s | Cc1nc(Nc2ccc(Br)cn2)sc1C(=O)N1CCC(C(N)=O)CC1
575 s | COc1cccc(CNC(=O)CCC2CCN(c3cc(NC4CC4)ncn3)CC2)c1
1080 s | CCCc1cc(=O)n(CC(=O)Nc2ccc(C)cc2Cl)c(-c2ccc(Cl)cc2)n1
771 s | CNC(=O)c1cc2cc(Br)ccc2[nH]1
1050 s | Cc1cc(N2CCOCC2)nc(N2CCN(C(=O)c3c(F)cccc3F)CC2)n1
820 s | Cc1nc(OCC(=O)Nc2ccc(Br)cc2F)c2ccccc2n1
1220 s | CCOc1ccc(NS(=O)(=O)c2c(C)sc(C)c2-c2cc(C(F)(F)F)on2)cc1
884 s | COC(=O)c1sccc1NC(=O)Nc1cccn2c(C3CCC3)nnc12
1020 s | COc1ccc(CNC(=O)C2CCCN(c3nccnc3Sc3ccccc3)C2)c(OC)c1 (stereo not given)
709 s | O=C(NCCc1c[nH]c2ccccc12)C1CCN(c2nnc(N3CCCCC3=O)s2)CC1

RP-LC retention time | Compound
716 s | COC(=O)c1c(C)[nH]c(C(=O)N2CCC(CC(=O)N3CCCCC3)CC2)c1C
686 s | Cc1cc2[nH]c(C(=O)Nc3ccccc3F)c(CN3CCOCC3)c2s1
674 s | COc1ccc(NC(=O)Cn2nc3c4ccccc4ncn3c2=O)cc1Cl
1130 s | CCn1cc(-c2nc(C(=O)Nc3ccccc3F)cs2)c2cccnc21
1280 s | COc1ccc(Br)cc1S(=O)(=O)NC(=O)/C=C/c1ccccc1Cc1ccc2ccccc2c1
594 s | CCn1ncc(C(=O)N2CC[C@@H]3CN(S(C)(=O)=O)[C@@H]3C2)c1C
954 s | CC(C)CCNC(=O)C1CCCN(c2nc3ccsc3c(=O)n2Cc2ccc(F)cc2)C1 (stereo not given)
898 s | COc1ccc(C(=O)Nc2nnc(SCc3nnc(-c4ccccc4C)o3)s2)cc1OC
967 s | CCOc1ccc(NC(=O)Cn2c(N3CCOCC3)nc(COC)cc2=O)cc1
891 s | N#Cc1cc2c(nc1SCC(=O)N1CCOCC1)CCCCC2
842 s | Cc1[nH]c(C(=O)N2CCCC(C(=O)NCc3ccc4c(c3)OCO4)C2)c(C)c1C(=O)OC(C)C (stereo not given)
706 s | O=S(=O)(Cc1ccccc1F)N1CCCC(c2nn[nH]n2)C1 (stereo not given)
1230 s | CCOC(=O)c1ccc(NC(=O)c2sccc2S(=O)(=O)N(C)c2ccc(OCC)cc2)cc1
812 s | CCn1nnc2cc(-c3noc(-c4ccc(NC(C)=O)cc4)n3)ccc21
1290 s | CCOc1ccc(-c2csc(Cc3nc(-c4ccccc4Cl)no3)n2)cc1
857 s | O=C(NCCc1ccco1)c1cc2n(n1)CCCN(Cc1ccc(Cl)cc1)C2=O
1210 s | COC(=O)c1ccc2c(=O)n(-c3cccc(OC)c3)c(N3CCCCCC3)nc2c1
812 s | Cc1cc(F)ccc1NC(=O)C1CCCN1S(=O)(=O)c1cc2c(cc1C)NC(=O)C(C)O2 (stereo not given)
893 s | O=C(NCc1ccc(-c2noc(-c3ccc(F)cc3F)n2)s1)C1CC1
952 s | COc1cccc(-n2c(=O)c3sccc3n(Cc3nc(-c4ccc(F)cc4)no3)c2=O)c1

More lines, now with the values behind:

Compound | RP-LC retention time
COC(=O)Nc1ccc(S(=O)(=O)Nc2nc(C)cc(C)n2)cc1 | 599 s
O=C(NCc1ccccc1F)c1c(O)c2cccnc2n(Cc2ccccc2)c1=O | 1360 s
O=C(NC1CCCN(c2cc(-c3ccccc3)[nH]n2)C1)c1ccc2[nH]ccc2c1 (stereo not given) | 729 s
Cc1cccc(-c2noc(C3CCCN3C(=O)NC(C)C)n2)c1 (stereo not given) | 897 s
Cc1cccc(-c2nnc(C)c(N3CCCC3)n2)c1 | 656 s
O=C(NCCCN1CCOCC1)c1csc(-c2ccc(N3CCCC3)nc2)n1 | 553 s
COCCN1CCC(N2CCN(S(=O)(=O)c3cccc(Br)c3)CC2)C1=O (stereo not given) | 612 s
O=C(NCC(=O)N1CCCc2ccccc21)c1ccccc1Cl | 835 s
Cn1c(=O)c(-c2ccc(C(=O)NCc3ccc4c(c3)OCO4)cc2)nc2cccnc21 | 872 s
COc1ccc(NC(=O)c2cc(C(C)(C)C)n3nccc3n2)c(C)c1 | 1240 s
O=C(Cn1cccc(-c2nc(-c3ccc(Br)cc3)no2)c1=O)NCc1ccccc1 | 939 s
O=C(Nc1ccccc1F)N1[C@H]2CC[C@@H]1c1cncnc1C2 | 646 s
CCCCNC(=O)Cc1c(C)nn(-c2nc(-c3ccc(F)cc3)cs2)c1C | 1070 s
O=S(=O)(Cc1ccccc1)N1CCC(c2noc(-c3ccncc3)n2)C1 (stereo not given) | 812 s
O=C(NC1CC1)c1nc(C(=O)N2CCN(c3ccccc3)CC2)cs1 | 759 s
CC(C)C(=O)NCCc1csc(C2CCN(C(=O)NC(C)(C)C)CC2)n1 | 681 s
Cc1cc2c(=O)n(CC(=O)Nc3ccc(F)c(F)c3)ccc2s1 | 826 s
CN(CC1CCOCC1)C(=O)Nc1cccc(C(F)(F)F)c1 | 816 s
Cc1ccccc1-n1c(=O)c2sccc2n(Cc2nc(-c3ccc(Cl)c(F)c3)no2)c1=O | 1120 s
Cc1ccc(CNS(=O)(=O)c2cc(-c3[nH]ncc3C(=O)N(C)C)oc2C)cc1 | 712 s
Cc1nn(CC(=O)NCCCN2CCOCC2)c(=O)c2c(-n3cccc3)n(-c3ccc(F)cc3)nc12 | 665 s
O=C(c1ccc(N2C[C@H]3C[C@H](C2)[C@H]2CCCC(=O)N2C3)nc1)N1CCC2(CC1)OCCO2 | 584 s
Cc1cc(NC(=O)c2cn3c(n2)CSCC3)ccc1F | 743 s
CSc1ccc(NC(=O)CCNc2cnc3cnccn23)cc1 | 619 s
CCC(C)NC(=O)N1CCc2c(c(-c3nc(-c4cccc(F)c4)no3)nn2C)C1 (stereo not given) | 904 s

Compound | RP-LC retention time
O=C(COc1ccc(Cl)cc1)N1CCN(c2cc(-c3cccs3)[nH]n2)CC1 | 864 s
CCn1cc(-c2nc(C(=O)NCc3ccc(F)cc3Cl)cs2)c2cccnc21 | 1070 s
CCOC(=O)C1=C(CN2CCN(Cc3ccc4c(c3)OCO4)CC2)NC(=O)NC1c1ccc(F)cc1 (stereo not given) | 675 s
CCOc1ccc(N2C=C(C(=O)N3CCCC3)S(=O)(=O)c3ccccc32)cc1 | 828 s
COc1ccc(Cl)cc1C(=O)NCCOc1ccc(F)cc1 | 925 s
Cc1nc(CC(=O)Nc2ccc(F)c(Cl)c2)sc1C(=O)NC1CC1 | 759 s
COc1cc(-c2noc(Cn3ccn(-c4ccccc4)c(=O)c3=O)n2)cc(OC)c1OC | 749 s
O=C(Nc1ccc(F)cc1)C1CCCN(c2cnc3nccnc3c2)C1 (stereo not given) | 736 s
Cn1c(=O)n(C)c2cc(CNCCC3=CCCCC3)ccc21 | 600 s
COc1ccc(C(=O)NC2CCN(c3cc(C)cc(C)c3)C2=O)cc1F (stereo not given) | 901 s
CCN(CC)C(=O)Cn1cc(C(=O)C(=O)N2CCc3ccccc3C2)c2ccccc21 | 644 s
CC(C)=C1SC(N2CCN(c3cccc(C(F)(F)F)c3)CC2)=NC1=O | 922 s
CS(=O)(=O)N1CCC(C(=O)Nc2ccc(F)c(Cl)c2)Oc2ccccc21 (stereo not given) | 986 s
CCC(C(=O)NCCOc1ccc2nnc(-c3ccc(OC)cc3)n2n1)c1ccccc1 (stereo not given) | 735 s
Cc1noc2nc(C)n(CC(=O)NCc3cccc(F)c3)c(=O)c12 | 740 s
COc1cc(NC(=O)C2CCCN(c3nc(C)nc4oc(C)c(C)c34)C2)cc(OC)c1 (stereo not given) | 915 s
CC(C)(C)NC(=O)N1CCOc2ccccc21 | 892 s
O=C(CSc1nnc2c3cc(-c4ccccc4)nn3ccn12)NCc1ccccc1Cl | 800 s
O=C(CCCn1c(=O)c2cccn2c2ccc(F)cc21)NCCc1c[nH]c2ccccc12 | 858 s
COc1ccccc1NC(=O)NCC(O)c1ccsc1 (stereo not given) | 684 s
Cc1ccc(C(=O)CC2(O)C(=O)Nc3ccc(C)cc32)cc1 (stereo not given) | 755 s
O=C(Nc1ccc(F)cc1)N1CCC(n2c(-c3ccco3)nc3cccnc32)C1 (stereo not given) | 749 s
CCn1c(=O)n(CCc2ccccc2)c2cncnc21 | 715 s
CC(C)C(=O)Nc1ccc(S(=O)(=O)NCC(c2ccsc2)N(C)C)cc1 (stereo not given) | 565 s
CN(C)c1ccc2c(c1)OC(N)=C(C#N)C2c1cccc(C(F)(F)F)c1 (stereo not given) | 1020 s
